Results reported in PubChem BioAssay (NCI).
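In this assay, cells in 96-well plates receive the compound at five concentrations for 48 hours. Endpoints are linearly interpolated between the surrounding concentrations. GI50: concentration for 50% inhibition of growth. TGI is the concentration that stops growth completely.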

How the values were obtained:
Assay in all cases: NCI tumour cell line growth inhibition, 48 h
COLO 205 colon = tested on: COLO 205 colon
HL-60(TB) leukemia = tested on: HL-60(TB) leukemia
OVCAR-8 ovarian = tested on: OVCAR-8 ovarian
RPMI-8226 leukemia = tested on: RPMI-8226 leukemia
SF-539 CNS = tested on: SF-539 CNS
SNB-75 CNS = tested on: SNB-75 CNS
U251 CNS = tested on: U251 CNS
EKVX NSCLC = tested on: EKVX NSCLC
HCT-15 colon = tested on: HCT-15 colon
SK-MEL-2 melanoma = tested on: SK-MEL-2 melanoma

COP1(=O)CC2C(Cl)(Cl)C2(C)C1 (configuration not stated)
TGI (COLO 205 colon): > 100 µM | TGI (HL-60(TB) leukemia): > 100 µM | TGI (OVCAR-8 ovarian): > 100 µM | TGI (RPMI-8226 leukemia): > 100 µM | TGI (SF-539 CNS): > 100 µM | TGI (SNB-75 CNS): > 100 µM | TGI (U251 CNS): > 100 µM

CCOC(=O)C(C)(C)Oc1ccc2c(=O)cc(-c3ccc(Cl)cc3)oc2c1
TGI (COLO 205 colon): > 100 µM | TGI (EKVX NSCLC): > 100 µM | TGI (HCT-15 colon): > 100 µM | TGI (HL-60(TB) leukemia): > 100 µM | TGI (OVCAR-8 ovarian): > 100 µM | TGI (RPMI-8226 leukemia): > 100 µM | TGI (SF-539 CNS): > 100 µM | TGI (SK-MEL-2 melanoma): > 100 µM | TGI (SNB-75 CNS): > 100 µM | TGI (U251 CNS): > 100 µM

CC(=O)Oc1cc(C)ccc1[C@]1(C)CC[C@H](C)/C1=C\Br
GI50 (COLO 205 colon): 2.3 µM | TGI (COLO 205 colon): 5.33 µM | GI50 (EKVX NSCLC): 6.67 µM | TGI (EKVX NSCLC): 18.5 µM | GI50 (HCT-15 colon): 4.51 µM | TGI (HCT-15 colon): 19.2 µM | GI50 (HL-60(TB) leukemia): 3.41 µM | TGI (HL-60(TB) leukemia): 15 µM | GI50 (OVCAR-8 ovarian): 5.05 µM | TGI (OVCAR-8 ovarian): 21 µM | GI50 (RPMI-8226 leukemia): 2.71 µM | TGI (RPMI-8226 leukemia): 8.09 µM | GI50 (SF-539 CNS): 2.32 µM | TGI (SF-539 CNS): 5.1 µM | GI50 (SK-MEL-2 melanoma): 7.21 µM | TGI (SK-MEL-2 melanoma): 24.7 µM | GI50 (U251 CNS): 4.92 µM | TGI (U251 CNS): 16.6 µM

CC1(C)C(=O)N(c2ccccc2)C(=O)N1c1nc2ccccc2[nH]1
TGI (COLO 205 colon): > 100 µM | TGI (EKVX NSCLC): > 100 µM | TGI (HCT-15 colon): > 100 µM | TGI (HL-60(TB) leukemia): > 100 µM | TGI (OVCAR-8 ovarian): > 100 µM | TGI (RPMI-8226 leukemia): > 100 µM | TGI (SK-MEL-2 melanoma): > 100 µM | TGI (SNB-75 CNS): > 100 µM

O=C1C=C(c2c(O)ccc3ccccc23)c2ccccc2C1=O
TGI (COLO 205 colon): 21.7 µM | TGI (EKVX NSCLC): 11.9 µM | TGI (HCT-15 colon): 13.1 µM | TGI (HL-60(TB) leukemia): 15.3 µM | TGI (OVCAR-8 ovarian): 5.3 µM | TGI (RPMI-8226 leukemia): 15.7 µM | TGI (SF-539 CNS): 4.36 µM | TGI (SK-MEL-2 melanoma): 15.8 µM | TGI (SNB-75 CNS): 12.9 µM | TGI (U251 CNS): 5.13 µM

O=C1c2cc(Br)ccc2-c2c1c1ccc([N+](=O)[O-])cc1c(=O)n2CCCCl
GI50 (COLO 205 colon): 1.39 µM | TGI (COLO 205 colon): > 100 µM | GI50 (EKVX NSCLC): 10.6 µM | TGI (EKVX NSCLC): > 100 µM | GI50 (HCT-15 colon): 1.41 µM | TGI (HCT-15 colon): > 100 µM | GI50 (OVCAR-8 ovarian): 0.293 µM | TGI (OVCAR-8 ovarian): 17.4 µM | GI50 (RPMI-8226 leukemia): < 0.0289 µM | TGI (RPMI-8226 leukemia): 0.647 µM | GI50 (SF-539 CNS): 0.182 µM | TGI (SF-539 CNS): 3.31 µM | GI50 (SK-MEL-2 melanoma): 10.8 µM | TGI (SK-MEL-2 melanoma): 37.3 µM | GI50 (U251 CNS): < 0.0219 µM | TGI (U251 CNS): 15.6 µM

CCCCC#COP(=O)(OCC)OCC
TGI (COLO 205 colon): > 100 µM | TGI (EKVX NSCLC): > 100 µM | TGI (HCT-15 colon): > 100 µM | TGI (HL-60(TB) leukemia): > 100 µM | TGI (OVCAR-8 ovarian): > 100 µM | TGI (RPMI-8226 leukemia): > 100 µM | TGI (SF-539 CNS): > 100 µM | TGI (SK-MEL-2 melanoma): > 100 µM | TGI (U251 CNS): > 100 µM

Cc1nn(C(=O)c2ccccc2O)c2c1C(c1ccccc1)SC(N)=N2 (configuration not stated)
TGI (COLO 205 colon): > 10 µM | TGI (EKVX NSCLC): > 10 µM | TGI (HCT-15 colon): > 10 µM | TGI (HL-60(TB) leukemia): 3.58 µM | TGI (OVCAR-8 ovarian): > 10 µM | TGI (RPMI-8226 leukemia): 6.05 µM | TGI (SF-539 CNS): 0.621 µM | TGI (SK-MEL-2 melanoma): > 10 µM | TGI (U251 CNS): > 10 µM

C=CCCCCCCCCCCCC1CCC(CC)N1 (configuration not stated)
TGI (COLO 205 colon): 14.7 µM | TGI (EKVX NSCLC): 31.4 µM | TGI (HCT-15 colon): 12.9 µM | TGI (HL-60(TB) leukemia): 9.01 µM | TGI (RPMI-8226 leukemia): 31.9 µM | TGI (SF-539 CNS): 25.3 µM | TGI (SK-MEL-2 melanoma): 29.5 µM | TGI (SNB-75 CNS): 33.9 µM | TGI (U251 CNS): 25.5 µM

COc1ccc(/C=C/c2cc(OC)c(OC)c(OC)c2)cc1NC(=O)/C=C/c1ccc(F)cc1
GI50 (COLO 205 colon): 2.43 µM | TGI (COLO 205 colon): 6.71 µM | GI50 (EKVX NSCLC): 7.4 µM | TGI (EKVX NSCLC): > 100 µM | GI50 (HCT-15 colon): 4 µM | TGI (HCT-15 colon): > 100 µM | GI50 (HL-60(TB) leukemia): 1.8 µM | TGI (HL-60(TB) leukemia): 7.47 µM | GI50 (OVCAR-8 ovarian): 3.37 µM | TGI (OVCAR-8 ovarian): > 100 µM | GI50 (RPMI-8226 leukemia): 2.1 µM | TGI (RPMI-8226 leukemia): > 100 µM | GI50 (SF-539 CNS): 2.88 µM | TGI (SF-539 CNS): 7.86 µM | GI50 (U251 CNS): 3.17 µM | TGI (U251 CNS): > 100 µM
